Data taken from patent US6602896B1, “p38MAPK inhibitor and uses thereof” (The Board of Trustees of the University of Arkansas, priority 1999, dated 2003).
Entries after “also recorded” stand apart in the source; their conditions may differ.

What was measured:
[1] = test system: MEK-1/2; assay: Immunoblot of phospho-MEK-1/2 in HepG2 cells; format: cell-based, human; details: SB202190 2.5 μM
Experimental: (§1) 2×10^5 cells were grown and treated as described in FIG. 1. After the indicated times, equal amounts of cell lysates were blotted with anti-phospho-p42/44^MAPK antibody, phosphorylation-independent p42/44^MAPK antibody, anti-phospho p46/54^JNK antibody, anti-phospho-MEK-1/2, or phosphorylation-independent MKP-1.
HepG2 cells were cultured in the absence or presence of 1 μM staurosporine or 5 μM PD98059 for 30 min. SB202190 (2.5 μM) was then added to the cells for 4 h, cell lysate was subjected to immunoblotting to measure the phosphorylation levels of p42/44^MAPK and MEK-1/2. […]
(§2) Proteins were fractionated by SDS-PAGE with an 10% acrylamide separation gel, and the separated proteins were transferred to nitrocellulose, and processed as described previously (43, 44). […] After further washing in Tris/NaCl/Tween-20, membranes were incubated for 1 h with horseradish peroxidase-linked anti-IgG secondary antibody (Bio-Rad, diluted 1:5000), and immunoreactive proteins were detected by ECL as described by the supplier. Quantitative analyses of protein levels were performed by densitometric scanning of the autoradiograms, and are representative of 3 or more independent experiments.

[2] = test system: p38^MAPK γ- and δ-isoforms; details: cited from earlier work
[3] = test system: p46/54^JNK; details: even at higher concentrations (100 μM); cited from earlier work
[4] = test system: p38^MAPK α- and β-isoforms; details: cited from earlier work
[5] = test system: p46/54^JNK; assay: Immunoblot of phospho-p46/54JNK in HepG2 cells; format: cell-based, human; details: SB202190 2.5 μM
Experimental: as §1, with “MKP-1. […]” for “MKP-1.”
as §2
(§3) HepG2 cells were incubated with SB202190, and the activity of p42/44^MAPK and p46/54^JNK was determined by immunoblot analysis with antibodies that recognized the activated phosphorylated forms of these kinases in cell extracts obtained at different times.

[6] = test system: p42/44^MAPK; assay: Western blotting of phospho-p42/44MAPK in HeLa cells; format: cell-based; details: SB202190 (2.5 μg/ml) in 0.5% FBS
Experimental: (§4) Proteins were fractionated by SDS-PAGE with an 10% acrylamide separation gel, and the separated proteins were transferred to nitrocellulose, and processed as described previously (43, 44). Briefly, membranes were incubated in 20 mM Tris-HCl, pH 7.6, 137 mM NaCl, 0.2% v/v Tween-20 (Tris/NaCl/Tween-20) with 5% w/v non-fat dried milk for 1 h, washed in Tris/NaCl/Tween-20 (3×5 min), and incubated for 1 h with primary antibody in Tris/NaCl/Tween-20 containing 1% milk at room temperature for non phospho-specific antibodies and overnight at 4° C. for phospho-specific antibodies. The following dilutions were used for individual antibodies against different proteins: p42/44^MAPK (1:1600); phosphop-42/44^MAPK (1:1000); phosphop-46/54^JNK (1:1000); phospho-p38^MAPK (1:1600); phospho-MEK-1/2 (1:1000); MKP-1 (1:1500). After further washing in Tris/NaCl/Tween-20, membranes were incubated for 1 h with horseradish peroxidase-linked anti-IgG secondary antibody (Bio-Rad, diluted 1:5000), and immunoreactive proteins were detected by ECL as described by the supplier. Quantitative analyses of protein levels were performed by densitometric scanning of the autoradiograms, and are representative of 3 or more independent experiments.

[7] = test system: p42/44^MAPK; assay: Immunoblot of phospho-p42/44MAPK in HepG2 cells; format: cell-based, human; details: SB202190 2.5 μM
Experimental: as §1
HepG2 cells were cultured in the absence or presence of 1 μM staurosporine or 5 μM PD98059 for 30 min. SB202190 (2.5 μM) was then added to the cells for 4 h, cell lysate was subjected to immunoblotting to measure the phosphorylation levels of p42/44^MAPK and MEK-1/2.
Human hepatoma cell line HepG2 and its derivative HepG2-ΔRaf-1:ER cell line that stably expresses the ΔRaf-1:ER chimera were maintained as monolayer cultures in a humidified 5% CO2 atmosphere at 37° C. in Eagle's minimum essential medium (EMEM) (Bio Whittaker, Md.) supplemented with 10% fetal bovine serum (FBS) (Life Technologies Inc.), 2 mM L-glutamine, 20 units/ml penicillin and 20 μg/ml streptomycin sulphate.
as §4, §3

[8] = test system: squalene synthase (SS); assay: Northern blotting of squalene synthase (SS) mRNA in HepG2 cells; format: cell-based, human; details: SB202190 2.5 μM
Experimental: 5×10^5 cells were plated on day 0. On day 2, cells were refed with fresh medium. On day. 4, cells were either left untreated (0) or treated for the indicated times with SB202190 (2.5 μM) in medium containing 0.5% FBS. Total RNA was isolated and subjected to Northern blotting to determine amounts of LDL receptor, squalene synthase (SS) genes, and actin mRNAs. Autoradiographs were quantitated densitometrically. LDL receptor mRNA levels were normalized to actin mRNA levels. In the bottom panel, results are expressed as the fold induction by SB 202190 as compared with uninduced cells (set at 1). Values obtained are the averages of three separate experiments, with the standard deviations shown. […]
Total RNA was isolated using TRIzol, and Northern blotting was done essentially as described earlier (43, 44). […] The relative intensities of specific bands were determined densitometrically within the linear range of the film on a model 300A laser densitometer (Molecular Dyanamics, Calif.) with Image Quant software. […]

Oc1ccc(-c2nc(-c3ccc(F)cc3)c(-c3ccncc3)[nH]2)cc1 [SB202190, 4-(4-Fluorophenyl)-2-(4-hydroxyphenyl)-5-(4-pyridyl) 1H-imidazole]
kinetics of MEK-1/2 phosphorylation [1]: paralleled the appearance of p42/44^MAPK | inhibition of p38MAPK γ- and δ-isoforms [2]: insensitive | effect on homologues p38MAPK γ (SAPK3) and SAPK4 ([2]; even at higher concentrations (100 μM)): without effect | effect on p46/54JNK [3]: without effect | inhibition of p38MAPK α- and β-isoforms [4]: selectively inhibit both p38^MAPK α- and β-isoforms; also recorded: inhibited | effect on activity or levels of p46/54JNK [5]: little or no effect | p42/44MAPK activity in HeLa cells [6]: induced p42/44^MAPK activity | activation of p42/44MAPK (phosphorylation) [7]: delayed and prolonged activation | effect on p42/44MAPK protein levels [7]: no effect on p42/44^MAPK protein levels | time of maximal p42/44MAPK activation after stimulation [7]: 4 to 8 h | time of weak p42/44MAPK activation after treatment [7]: 1 h | time until which activated p42/44MAPK remained elevated ([7]; 24 hours was maximum time point measured): ≥ 24 h | effect on expression of actin gene or sterol-sensitive gene SS [8]: without significantly affecting expression
